# From paper PMC4038645 (Cancer, 2014)
# Where two headings read alike, the source gives them in different places. Marks after values point to notes of the source that are not given here.
# Columns and labels:
# [1] = system: ABCB1; conditions: cited from earlier work
# [2] = system: ABCG2; conditions: cited from earlier work
# [3] = Plasma pharmacokinetics of sunitinib and N-desethyl sunitinib; assay type: in vivo, human; conditions: for half-life: n=1
# [4] = system: CYP3A4; conditions: cited from earlier work
# [5] = system: solid or hematologic malignancy; test: Response assessment after every two cycles; assay type: in vivo, human; conditions: 17 patients evaluable for response
# [6] = phase III trial, 50mg/day, cited from earlier work
# [7] = human, in vivo, 6 weeks (cycle 1)
smiles,measurement,setting,value
CCNCCNC(=O)c1c(C)[nH]c(/C=C2\C(=O)Nc3ccc(F)cc32)c1C [N-desethyl sunitinib],substrate for ABCB1 drug transporter,[1],substrates
same,substrate for ABCG2 drug transporter,[2],substrates
same,decrease in AUC0–24h compared to NNRTI,"[3]; human, in vivo",40%
same,decrease in Cmax compared to NNRTI,"[3]; human, in vivo",48%
same,increase in AUC0–24h compared to NNRTI,"[3]; human, in vivo",390%
same,increase in Cmax compared to NNRTI,"[3]; human, in vivo",410%
O=C1Nc2ccc(Cl)cc2[C@@](C#CC2CC2)(C(F)(F)F)O1 [efavirenz],induction of CYP3A4,[4],known inducer
"CCN(CC)CCNC(=O)c1c(C)[nH]c(/C=C2\C(=O)Nc3ccc(F)cc32)c1C [sunitinib, Sunitinib malate]",substrate for ABCB1 drug transporter,[1],substrates
same,objective response to therapy,[5],No patient experienced an objective response
same,rate of grade 3 or 4 neutropenia,[6]; gastrointestinal stromal tumors,10%
same,rate of grade 3 or 4 neutropenia,[6]; primitive neuroectodermal tumors,16%
same,rate of grade 3 or 4 neutropenia,[6]; renal cell carcinoma,17%
same,substrate for ABCG2 drug transporter,[2],substrates
same,"correlation between hand-foot syndrome and elevated Cmin,ss","[3]; Mann–Whitney U-test, p=0.013",There was a correlation
same,Cmax,"[3]; Ritonavir group, sunitinib 37.5 mg/day, Cycle 1 Day 1, mean±SD",19.9±5.9 (6) ng/mL
same,T1/2,"[3]; Ritonavir group, sunitinib 37.5 mg/day, actual values (n=2)",86.8 h
same,AUC(0-t),"[3]; human, in vivo, 37.5 mg/day",338 ± 99 ng·h/mL
same,fraction unbound,"[3]; human, in vivo, 37.5 mg/day",0.067 ± 0.021
same,half-life,"[3]; human, plasma, oral, 25 mg/day, T1/2, Ritonavir group, sunitinib 25 mg/day",66 h
same,Tmax,"[3]; human, plasma, oral, 50 mg/day",7.5 h
same,half-life,"[3]; human, plasma, oral, 50 mg/day, T1/2, NNRTI group, sunitinib 50 mg/day",63.6 h
same,ALT/AST Elevation All Grade (%),"human, in vivo",2 (11)
same,ALT/AST Elevation ≥G3 (%),"human, in vivo",0 (0)
same,Abdominal Pain All Grade (%),"human, in vivo",2 (11)
same,Abdominal Pain ≥G3 (%),"human, in vivo",0 (0)
same,Anemia All Grade (%),"human, in vivo",3 (16)
same,Anemia ≥G3 (%),"human, in vivo",1 (5)
same,Anorexia ≥G3 (%),"human, in vivo",0 (0)
same,Constipation All Grade (%),"human, in vivo",2 (11)
same,Constipation ≥G3 (%),"human, in vivo",0 (0)
same,Cough ≥G3 (%),"human, in vivo",0 (0)
same,Diarrhea All Grade (%),"human, in vivo",9 (47)
same,Diarrhea ≥G3 (%),"human, in vivo",1 (5)
same,Epistaxis ≥G3 (%),"human, in vivo",0 (0)
same,Fatigue All Grade (%),"human, in vivo",8 (42)
same,Fatigue ≥G3 (%),"human, in vivo",0 (0)
same,Headache All Grade (%),"human, in vivo",2 (11)
same,Headache ≥G3 (%),"human, in vivo",0 (0)
same,Hypertension All Grade (%),"human, in vivo",4 (21)
same,Hypertension ≥G3 (%),"human, in vivo",0 (0)
same,Hypopigmentation All Grade (%),"human, in vivo",2 (11)
same,Hypopigmentation ≥G3 (%),"human, in vivo",0 (0)
same,Mucositis All Grade (%),"human, in vivo",3 (16)
same,Mucositis ≥G3 (%),"human, in vivo",0 (0)
same,Myalgia/Limb Pain All Grade (%),"human, in vivo",2 (11)
same,Myalgia/Limb Pain ≥G3 (%),"human, in vivo",0 (0)
same,Nausea/Vomiting All Grade (%),"human, in vivo",6 (32)
same,Nausea/Vomiting ≥G3 (%),"human, in vivo",0 (0)
same,Neutropenia All Grade (%),"human, in vivo",10 (53)
same,Neutropenia ≥G3 (%),"human, in vivo",6 (32)
same,Rash ≥G3 (%),"human, in vivo",0 (0)
same,Thrombocytopenia All Grade (%),"human, in vivo",3 (16)
same,Thrombocytopenia ≥G3 (%),"human, in vivo",0 (0)
same,Wound Dehiscence All Grade (%),"human, in vivo",2 (11)
same,Wound Dehiscence ≥G3 (%),"human, in vivo",1 (5)
same,ALT/AST Elevation All Grade (%),"human, in vivo, 6 weeks",2 (11)
same,ALT/AST Elevation ≥G3 (%),"human, in vivo, 6 weeks",0 (0)
same,Constipation All Grade (%),"human, in vivo, 6 weeks",1 (5)
same,Constipation ≥G3 (%),"human, in vivo, 6 weeks",0 (0)
same,Diarrhea All Grade (%),"human, in vivo, 6 weeks",8 (42)
same,Diarrhea ≥G3 (%),"human, in vivo, 6 weeks",0 (0)
same,Fatigue All Grade (%),"human, in vivo, 6 weeks",7 (37)
same,Fatigue ≥G3 (%),"human, in vivo, 6 weeks",0 (0)
same,Hypertension All Grade (%),"human, in vivo, 6 weeks",3 (16)
same,Hypertension ≥G3 (%),"human, in vivo, 6 weeks",0 (0)
same,Mucositis All Grade (%),"human, in vivo, 6 weeks",2 (11)
same,Mucositis ≥G3 (%),"human, in vivo, 6 weeks",0 (0)
same,Nausea/Vomiting All Grade (%),"human, in vivo, 6 weeks",3 (16)
same,Nausea/Vomiting ≥G3 (%),"human, in vivo, 6 weeks",0 (0)
same,Anemia All Grade (%),[7],2 (11)
same,Anemia ≥G3 (%),[7],1 (5)
same,Neutropenia All Grade (%),[7],10 (53)
same,Neutropenia ≥G3 (%),[7],5 (26)
same,Thrombocytopenia All Grade (%),[7],2 (11)
same,Thrombocytopenia ≥G3 (%),[7],0 (0)
same,Wound Dehiscence All Grade (%),[7],2 (11)
same,Wound Dehiscence ≥G3 (%),[7],1 (5) ^#
same,recommended dose,"patients on ritonavir, 4 week on/2 week off schedule",37.5 mg/day
same,MTD,"patients on ritonavir, daily, 4 weeks on/2 weeks off",37.5 mg
